Measured values reported in PubChem BioAssay AID328 (DTP/NCI, 2004).
Where “and” joins values, the source holds several entries; their conditions need not be identical. Equal values may be shown once. Inconclusive results and toxic doses are left out.

Test system: BDF1 mice, P388 leukemia ip, median survival T/C
Assay: NCI In Vivo Anticancer Drug Screen. Data for tumor model P388 Leukemia (intraperitoneal) in B6D2F1 (BDF1) mice
Conditions: endpoint: median survival time, higher = longer survival
Procedure, shortened: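 Transplantable tumour in mice; compound vs vehicle dosing; survival scored; ratio of treated to control reported.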

[1] = dose: 50.0 mg/kg/injection, schedule: Q01DX009 (ip), vehicle: saline with Tween-80
[2] = dose: 100.0 mg/kg/injection, schedule: Q01DX009 (ip), vehicle: saline with Tween-80
[3] = dose: 200.0 mg/kg/injection, schedule: Q01DX009 (ip), vehicle: saline with Tween-80
[4] = dose: 100.0 mg/kg/injection, schedule: Q01DX009 (ip), vehicle: Klucel (hydroxypropylcellulose) (HPC)
[5] = dose: 100.0 mg/kg/injection, schedule: Q04DX003 (ip), vehicle: saline with Tween-80
[6] = dose: 200.0 mg/kg/injection, schedule: Q01DX009 (ip), vehicle: Klucel (hydroxypropylcellulose) (HPC)
[7] = dose: 200.0 mg/kg/injection, schedule: Q04DX003 (ip), vehicle: saline with Tween-80
[8] = dose: 100.0 mg/kg/injection, schedule: Q01DX001 (ip), vehicle: saline with Tween-80
[9] = dose: 200.0 mg/kg/injection, schedule: Q01DX001 (ip), vehicle: saline with Tween-80

With `COC(=O)c1c2ccccc2cn1-c1ccccc1` the T/C [1] was 100 % of control, the T/C [2] was 109 % of control and the T/C [3] was 100 % of control.

For `CC(=O)Nc1cccc(Cl)c1C`, the T/C (dose: 8.25 mg/kg/injection, schedule: Q01DX009 (ip), vehicle: saline with Tween-80) was 100 % of control, the T/C (dose: 12.4 mg/kg/injection, schedule: Q01DX009 (ip), vehicle: saline with Tween-80) was 104 % of control and the T/C (dose: 18.7 mg/kg/injection, schedule: Q01DX009 (ip), vehicle: saline with Tween-80) was 100 % of control. For the same compound, the T/C (dose: 28.2 mg/kg/injection, schedule: Q01DX009 (ip), vehicle: saline with Tween-80) was 100 % of control, the T/C (dose: 50.0 mg/kg/injection, schedule: Q01DX009 (ip), vehicle: Klucel (hydroxypropylcellulose) (HPC)) was 100 % of control and the T/C [1] was 100 % of control. For the same compound, the T/C [4] was 100 % of control, the T/C [5] was 95 % of control and the T/C [6] was 86 % of control. The T/C [7] was 100 % of control and the T/C (dose: 400.0 mg/kg/injection, schedule: Q04DX003 (ip), vehicle: saline with Tween-80) was 100 % of control.

For `[Se]c1ccnc([Se])n1`, the T/C (dose: 50.0 mg/kg/injection, schedule: Q04DX003 (ip), vehicle: saline with Tween-80) was 100 % of control, the T/C [5] was 90 % of control and the T/C [7] was 100 % of control.

`FC(F)(F)/C([S-])=C(/[S-])C(F)(F)F.FC(F)(F)/C([S-])=C(/[S-])C(F)(F)F.FC(F)(F)/C([S-])=C(/[S-])C(F)(F)F.FC(F)(F)/C([S-])=C(/[S-])C(F)(F)F.[Fe+3].[Fe+3]` was tested, and the T/C (dose: 50.0 mg/kg/injection, schedule: Q01DX001 (ip), vehicle: saline with Tween-80) was 100 % of control, the T/C [8] was 104 % of control and the T/C [9] was 104 % of control.

`COc1cc2cc(-c3cc(OC)c(OC)c(OC)c3)c3c(c2cc1OC)CNC3=O` was tested, and the T/C (dose: 100.0 mg/kg/injection, schedule: Q01DX009 (ip), vehicle: saline) was 110 % of control, the T/C (dose: 100.0 mg/kg/injection, schedule: Q04DX003 (ip), vehicle: saline) was 101 % of control and the T/C (dose: 200.0 mg/kg/injection, schedule: Q01DX009 (ip), vehicle: saline) was 112 % of control. The T/C (dose: 200.0 mg/kg/injection, schedule: Q04DX003 (ip), vehicle: saline) was 108 % of control, the T/C (dose: 400.0 mg/kg/injection, schedule: Q01DX009 (ip), vehicle: saline) was 91 % of control and the T/C (dose: 400.0 mg/kg/injection, schedule: Q04DX003 (ip), vehicle: saline) was 100 % of control.

For `OC(CN1CC1)c1ccccc1` (configuration not stated), the T/C (dose: 20.0 mg/kg/injection, schedule: Q04DX003 (ip), vehicle: saline) was 90 % of control, the T/C (dose: 40.0 mg/kg/injection, schedule: Q04DX003 (ip), vehicle: saline) was 95 % of control and the T/C (dose: 80.0 mg/kg/injection, schedule: Q04DX003 (ip), vehicle: saline) was 100 % of control.

With `COCCCNC1=C(C#N)C(=O)NC2(CCCC2)S1` the T/C [1] was 90 % of control, the T/C [2] was 90 % of control and the T/C [3] was 104 % of control.

For `CCCNC(=O)NO`, the T/C [4] was 119 % of control, the T/C (dose: 100.0 mg/kg/injection, schedule: Q04DX003 (ip), vehicle: other) was 87 % of control and the T/C [6] was 104 % of control. The T/C (dose: 200.0 mg/kg/injection, schedule: Q04DX003 (ip), vehicle: other) was 104 % of control, the T/C (dose: 400.0 mg/kg/injection, schedule: Q01DX009 (ip), vehicle: Klucel (hydroxypropylcellulose) (HPC)) was 114 % of control and the T/C (dose: 400.0 mg/kg/injection, schedule: Q04DX003 (ip), vehicle: other) was 104 % of control.

In the case of `O=C(O)C(=O)O.O=C([O-])C(=O)O.O=C([O-])C(=O)O.O=C([O-])C(=O)[O-].[K+].[U]`, the T/C (dose: 1.02 mg/kg/injection, schedule: Q01DX009 (ip), vehicle: saline) is reported as 90 % of control, the T/C (dose: 1.56 mg/kg/injection, schedule: Q01DX009 (ip), vehicle: saline) is reported as 91 % of control and the T/C (dose: 2.34 mg/kg/injection, schedule: Q01DX009 (ip), vehicle: saline) is reported as 95 % of control. The T/C (dose: 6.25 mg/kg/injection, schedule: Q01DX009 (ip), vehicle: saline) was 95 % of control, the T/C (dose: 6.25 mg/kg/injection, schedule: Q04DX003 (ip), vehicle: saline) was 90 % of control and the T/C (dose: 12.5 mg/kg/injection, schedule: Q01DX009 (ip), vehicle: saline) was 100 % of control. For the same compound, the T/C (dose: 50.0 mg/kg/injection, schedule: Q04DX003 (ip), vehicle: saline) was 86 % of control.

`C/C=C1\C(=O)O[C@@]23C=C[C@H]4C(C(=O)OC)=CO[C@@H](O[C@H]12)[C@H]43` was tested, and the T/C (dose: 0.75 mg/kg/injection, schedule: Q01DX009 (ip), vehicle: saline) was 100 % of control, the T/C (dose: 2.5 mg/kg/injection, schedule: Q01DX009 (ip), vehicle: saline) was 115 % of control and the T/C (dose: 165.0 micrograms/kg/injection, schedule: Q01DX009 (ip), vehicle: Klucel (hydroxypropylcellulose) (HPC)) was 105 % of control. For the same compound, the T/C (dose: 620.0 micrograms/kg/injection, schedule: Q01DX009 (ip), vehicle: Klucel (hydroxypropylcellulose) (HPC)) was 115 % of control and the T/C (dose: 1250.0 micrograms/kg/injection, schedule: Q01DX009 (ip), vehicle: Klucel (hydroxypropylcellulose) (HPC)) was 105 % of control.

For `COc1ccc(-c2c(C)c(C)nc(Cl)c2C#N)c(OCc2ccccc2)c1OC`, the T/C (dose: 0.1 mg/kg/injection, schedule: Q01DX009 (ip), vehicle: Klucel (hydroxypropylcellulose) (HPC)) was 95 % of control.

For `CC[C@H]1CN2CCc3cc(OC)c(OC)cc3[C@@H]2C[C@@H]1C[C@H]1NCCc2cc(OC)c(OC)cc21`, the T/C (dose: 2.0 mg/kg/injection, schedule: Q01DX005 (ip), vehicle: saline) was 150 % of control, the T/C (dose: 2.0 mg/kg/injection, schedule: Q01DX009 (ip), vehicle: saline) was 150 % of control and the T/C (dose: 3.0 mg/kg/injection, schedule: Q01DX009 (oral), vehicle: saline) was 90 % of control. The T/C (dose: 3.5 mg/kg/injection, schedule: Q01DX010 (ip), vehicle: saline) was 154 % of control and 160 % of control, the T/C (dose: 4.0 mg/kg/injection, schedule: Q01DX005 (ip), vehicle: saline) was 175 % of control and the T/C (dose: 4.0 mg/kg/injection, schedule: Q01DX009 (ip), vehicle: saline) was 220 % of control. The T/C (dose: 4.0 mg/kg/injection, schedule: Q04DX003 (ip), vehicle: saline) was 103 % of control, the T/C (dose: 4.0 mg/kg/injection, schedule: Q## X003 (ip), vehicle: saline) was 115 % of control and the T/C (dose: 6.0 mg/kg/injection, schedule: Q01DX009 (oral), vehicle: saline) was 86 % of control. For the same compound, the T/C (dose: 7.0 mg/kg/injection, schedule: Q01DX010 (ip), vehicle: saline) was 222 % of control, the T/C (dose: 7.78 mg/kg/injection, schedule: Q04DX003 (ip), vehicle: saline) was 160 % of control and the T/C (dose: 8.0 mg/kg/injection, schedule: Q01DX005 (ip), vehicle: saline) was 90 % of control. The T/C (dose: 8.0 mg/kg/injection, schedule: Q04DX003 (ip), vehicle: saline) was 163 % of control, the T/C (dose: 8.0 mg/kg/injection, schedule: Q## X002 (ip), vehicle: saline) was 115 % of control and the T/C (dose: 8.0 mg/kg/injection, schedule: Q## X003 (ip), vehicle: saline) was 150 % of control. The T/C (dose: 13.0 mg/kg/injection, schedule: Q04DX003 (ip), vehicle: saline) was 151 % of control and 158 % of control and 192 % of control, the T/C (dose: 16.0 mg/kg/injection, schedule: Q04DX003 (ip), vehicle: saline) was 232 % of control and the T/C (dose: 16.0 mg/kg/injection, schedule: Q## X002 (ip), vehicle: saline) was 165 % of control. For the same compound, the T/C (dose: 16.0 mg/kg/injection, schedule: Q## X003 (ip), vehicle: saline) was 185 % of control, the T/C (dose: 16.0 mg/kg/injection, schedule: Q## X008 (ip), vehicle: saline) was 160 % of control and the T/C (dose: 16.0 mg/kg/injection, schedule: Q## X016 (ip), vehicle: saline) was 165 % of control. For the same compound, the T/C (dose: 16.0 mg/kg/injection, schedule: Q## X024 (ip), vehicle: saline) was 215 % of control, the T/C (dose: 18.0 mg/kg/injection, schedule: Q04DX003 (ip), vehicle: saline) was 185 % of control and the T/C (dose: 21.6 mg/kg/injection, schedule: Q04DX003 (ip), vehicle: saline) was 225 % of control and 235 % of control and 239 % of control. The T/C (dose: 32.0 mg/kg/injection, schedule: Q01DX001 (ip), vehicle: saline) was 150 % of control, the T/C (dose: 32.0 mg/kg/injection, schedule: Q## X002 (ip), vehicle: saline) was 210 % of control and the T/C (dose: 32.0 mg/kg/injection, schedule: Q## X003 (ip), vehicle: saline) was 90 % of control. For the same compound, the T/C (dose: 32.0 mg/kg/injection, schedule: Q## X016 (ip), vehicle: saline) was 150 % of control.

`CC(C)=C(B1OC(C)(C)C(C)(C)O1)B1OC(C)(C)C(C)(C)O1` was tested, and the T/C [8] was 110 % of control, the T/C [9] was 105 % of control and the T/C (dose: 400.0 mg/kg/injection, schedule: Q01DX001 (ip), vehicle: saline with Tween-80) was 105 % of control.
